Series [1] in a line: in vitro. As to conditions: for half-life at 5 μM: plasma; for Human Plasma Stability t½ min: 37° C., 5 μM, t½ > 240 min considered stable. As to the method:
Rat and human plasma were obtained from qualified vendors. […] The assay was performed in duplicate.

Series [2] is described as follows: in vitro. As to conditions: 0.5 mg microsome/mL, 1 mM NADPH; for Rat liver microsomal stability (RLM) t½ min: 1 uM. As to the method:
Precipitated proteins were removed by centrifugation, followed by withdrawing and diluting the supernatant for analysis. Two positive controls and negative controls (without NADPH) were used in the study. All samples were analyzed in duplicates. LC/MS/MS was performed for detection and quantification of the test compounds. Linear regression was determined using the remaining percentage of the parent drug at each incubation time and t1/2 value was calculated.

The conditions of series [3]: 37° C., 5 μM; for Chemical Stability, pH 4.5: pH 4.5 PBS; for Chemical Stability, pH 7.4: pH 7.4 PBS. As to the method:
Chemical stability of the prodrug compounds was tested at pH 4.5 and pH 7.4 (pH adjusted in phosphate buffer saline). Both buffer solutions at two pHs were prepared in house. 2 μL of 500 μM stock solution of the prodrug was added to each vial containing 198 μL PBS at pH 7.4 or pH 4.5 and mixed evenly. The assay was performed in duplicate. The final concentration of the test compound was 5 μM. samples were incubated at 37° C. at 600 rpm. […] Samples from individual vials were used for the different time points. The samples were vortexed for 2 minutes and centrifuged at 3,220 g for 5 minutes at 4° C. […] of the supernatant was transferred to a new plate.

In series [4] the target is Glucocorticoid receptor (GR) (Homo sapiens, UniProt P04150). As to the method: Glucocorticoid receptor (GR) binding of prodrugs was determined using TR-FRET GR competitive binding assay. Three-point (0.1, 1 and 10 μM) binding was evaluated for each prodrug.
Sequence of Glucocorticoid receptor (GR) (P04150 whole entry, species assumed): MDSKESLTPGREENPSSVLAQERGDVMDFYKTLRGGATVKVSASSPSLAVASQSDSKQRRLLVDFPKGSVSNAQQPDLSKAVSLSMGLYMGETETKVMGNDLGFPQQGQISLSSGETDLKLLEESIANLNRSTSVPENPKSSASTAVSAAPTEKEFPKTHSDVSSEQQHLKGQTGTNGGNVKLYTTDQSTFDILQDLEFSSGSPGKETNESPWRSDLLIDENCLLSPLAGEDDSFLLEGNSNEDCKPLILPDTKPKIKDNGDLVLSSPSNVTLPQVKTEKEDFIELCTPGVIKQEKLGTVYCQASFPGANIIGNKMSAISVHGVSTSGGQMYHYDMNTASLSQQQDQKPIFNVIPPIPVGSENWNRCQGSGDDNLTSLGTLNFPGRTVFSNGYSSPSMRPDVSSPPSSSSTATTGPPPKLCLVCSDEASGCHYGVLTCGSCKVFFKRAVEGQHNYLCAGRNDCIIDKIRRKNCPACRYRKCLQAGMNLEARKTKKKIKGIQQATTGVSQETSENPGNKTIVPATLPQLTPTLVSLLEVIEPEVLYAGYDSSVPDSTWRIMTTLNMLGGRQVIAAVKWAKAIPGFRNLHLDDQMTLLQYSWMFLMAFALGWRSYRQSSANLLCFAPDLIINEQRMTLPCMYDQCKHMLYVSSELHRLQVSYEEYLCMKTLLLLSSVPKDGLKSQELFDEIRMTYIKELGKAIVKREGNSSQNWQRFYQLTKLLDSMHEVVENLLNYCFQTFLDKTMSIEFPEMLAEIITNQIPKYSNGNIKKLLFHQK
Series [5] is described as follows: in vitro. As to conditions: human, Caco-2, pH 7.4.
Protocol: The objective of this study was to evaluate the bidirectional permeability and absorption mechanisms of the test compounds. CaCO-2 cells were cultured, and a monolayer was developed in-house in 96 well-plates over 18 days using standard protocol. The monolayer was tested for the integrity of the cell monolayer before using.
Test compounds were added to the transwell insert (apical compartment) to determine the rate of drug transport in the apical to basolateral direction. To determine the rate of drug transport in the basolateral to apical direction, the test compound was added to the receiver plate wells (basolateral compartment). Appropriate amount of HBSS (10 mM HEPES, pH 7.4) was added in both compartments for a final volume of 200 μL. The plates were incubated at 37° C. with shaking at 150 rpm on a rotary shaker for 2 hours. At the end of the transport period, 50 μL from the apical and basolateral wells were collected and 4 volume of cold acetonitrile containing internal standards (IS: 100 nM alprazolam, 200 nM labetalol, and 2 μM ketoprofen) was added to each sample to terminate the reaction. The samples were vortexed and centrifuged at 3,800 g for 20 minutes. An aliquot of 150 μL of the supernatant was used for LC/MS/MS analysis. All samples were analyzed in duplicates. Samples were analyzed through LC/MS/MS for estimating the permeability and efflux of the compounds across Caco-2 cell monolayers.
A short description of series [6]: in vitro. As to conditions: dog, MDCK.

Where two headings read alike, the source gives them in different places. A value given as a limit tells only on which side of the number the result lay.

This is an account of results in US20260263603A1, “PRODRUGS, PRODRUG COMPOSITIONS AND RELATED METHODS” (Praesidia Biotherapeutics Inc., priority 2023, published 2026).

One may read the half-life as the time needed for the level to fall by half in the phase considered. Low readings indicate rapid decline, high ones slow decline. By Papp A→B is commonly meant the apparent permeability from the apical to the basolateral side of a cell layer. Read a low Papp A→B as slow passage. For orientation: Papp B→A means how fast a substance crosses the layer from the basolateral side.

In series [1] (human), `C[C@@H]1C[C@H]2[C@@H]3CCC4=CC(=O)C=C[C@]4(C)[C@@]3(F)[C@@H](O)C[C@]2(C)[C@@]1(O)/C(CO)=N\NC(=O)C(N)Cc1ccccc1` (single isomer, unassigned) [Compound IIIA] came in with a half-life at 5 μM greater than 240 min. The same compound showed a half-life at 5 μM in series [1] (rat) greater than 240 min. Besides, the “Rat liver microsomal stability (RLM) t½ min” value (“Rat liver microsomal stability” for short) in series [2] worked out at 33 min. For the same compound, in series [3], the “Chemical Stability, pH 4.5” value is recorded as “Yes” and the “Chemical Stability, pH 7.4” value is reported as “Yes”.
Turning to `C[C@@H]1C[C@H]2[C@@H]3CCC4=CC(=O)C=C[C@]4(C)[C@@]3(F)[C@@H](O)C[C@]2(C)[C@@]1(O)/C(CO)=N\NC(=O)C(N)Cc1ccccc1` (single isomer, unassigned) [Compound IIIB], the “Human Plasma Stability t½ min” value in series [1] is greater than 240 min. Moreover, the “Rat liver microsomal stability” value in series [2] was determined as 81 min. The figures for the “GR Binding Data” value in series [4] (@ 0.1 uM), in series [4] (@ 1 uM) and in series [4] (@ 10 uM) were 8%, 8% and 68%, respectively. Besides, the “Chemical Stability, pH 4.5” value in series [3] was “Yes”. Moreover, the “Chemical Stability, pH 7.4” value in series [3] is recorded as “Yes”.
In series [5], `CC(C)C(N)C(=O)N/N=C(/CO)[C@@]1(O)[C@H](C)C[C@H]2[C@@H]3CCC4=CC(=O)C=C[C@]4(C)[C@@]3(F)[C@@H](O)C[C@@]21C` (single isomer, unassigned) [Compound IVA] came in with a Papp A→B at 2 h of 0.2 ×10⁻⁶ cm/s. Moreover, the Papp B→A at 2 h in series [5] came to 4 ×10⁻⁶ cm/s. Further, the half-life at 5 μM in series [1] (human) and in series [1] (rat) was greater than 240 min throughout. The “Rat liver microsomal stability” value in series [2] was 35 min. Also, the “GR Binding Data” value came to 4% in series [4] (@ 0.1 uM), 8% in series [4] (@ 1 uM) and 64% in series [4] (@ 10 uM). Also, in series [3], the “Chemical Stability, pH 4.5” value is recorded as “Yes”. Besides, the “Chemical Stability, pH 7.4” value in series [3] is recorded as “Yes”.
`CC(C)C(N)C(=O)N/N=C(/CO)[C@@]1(O)[C@H](C)C[C@H]2[C@@H]3CCC4=CC(=O)C=C[C@]4(C)[C@@]3(F)[C@@H](O)C[C@@]21C` (single isomer, unassigned) [Compound IVB]: in series [1], the “Human Plasma Stability t½ min” value is recorded as greater than 240 min. In series [2], the “Rat liver microsomal stability” value came to 108 min. For the same compound, the “GR Binding Data” value in series [4] (@ 0.1 uM) came out at 3%; in series [4] (@ 1 uM) it was 16%; in series [4] (@ 10 uM) it was 72%. Moreover, the “Chemical Stability, pH 4.5” value in series [3] was “Yes”. Also, the “Chemical Stability, pH 7.4” value in series [3] is listed as “Yes”.
In turn, `CC(C)C(N)C(=O)N/N=C1\C=C[C@@]2(C)C(=C1)CC[C@H]1[C@@H]3C[C@@H](C)[C@](O)(C(=O)CO)[C@@]3(C)C[C@H](O)[C@@]12F` (single isomer, unassigned) [Compound VA] registered a half-life at 5 μM in series [1] (rat) greater than 240 min. Besides, the half-life at 1 uM in series [2] (rat, liver microsomes, Rat liver microsomal stability (RLM) t½ min) stood at 44 min. Moreover, in series [3], the “Chemical Stability, pH 4.5” value is “Yes” and the “Chemical Stability, pH 7.4” value was “Yes”.
As for `CC(C)C(N)C(=O)N/N=C1\C=C[C@@]2(C)C(=C1)CC[C@H]1[C@@H]3C[C@@H](C)[C@](O)(C(=O)CO)[C@@]3(C)C[C@H](O)[C@@]12F` (single isomer, unassigned) [Compound VB], in series [3], the “Chemical Stability, pH 4.5” value was “Yes” and the “Chemical Stability, pH 7.4” value is “Yes”.
Turning to `CCC(=O)N/N=C(\CO)[C@@]1(O)[C@H](C)C[C@H]2[C@@H]3CCC4=CC(=O)C=C[C@]4(C)[C@@]3(F)[C@@H](O)C[C@@]21C` [Compound II], the half-life at 5 μM in series [1] (human) is greater than 240 min. In series [3], the “Chemical Stability, pH 4.5” value is reported as “Yes” and the “Chemical Stability, pH 7.4” value is listed as “Yes”.
As to `C[C@@H]1C[C@H]2[C@@H]3CCC4=C/C(=N/NC(=O)[C@H](Cc5ccccc5)N(C)C)C=C[C@]4(C)[C@@]3(F)[C@@H](O)C[C@]2(C)[C@@]1(O)C(=O)CO` [Compound IXA], the half-life at 5 μM in series [1] (rat) is greater than 240 min.
Regarding `C[C@@H]1C[C@H]2[C@@H]3CCC4=C/C(=N\NC(=O)[C@H](Cc5ccccc5)N(C)C)C=C[C@]4(C)[C@@]3(F)[C@@H](O)C[C@]2(C)[C@@]1(O)C(=O)CO` [Compound IXB], the half-life at 5 μM in series [1] (rat) is greater than 240 min.
As to `CCC(=O)N/N=C1\C=C[C@@]2(C)C(=C1)CC[C@H]1[C@@H]3C[C@@H](C)[C@](O)(C(=O)CO)[C@@]3(C)C[C@H](O)[C@@]12F` [Compound I], in series [1] (human), the half-life at 5 μM is greater than 240 min. For the same compound, in series [3], the “Chemical Stability, pH 4.5” value was “Yes” and the “Chemical Stability, pH 7.4” value is “Yes”.
As for `C[C@@H]1C[C@H]2[C@@H]3CCC4=C/C(=N/NC(=O)[C@@H](N)Cc5ccccc5)C=C[C@]4(C)[C@@]3(F)[C@@H](O)C[C@]2(C)[C@@]1(O)C(=O)CO` [Compound VIIA], in series [6], the Papp A→B came out at 0.15 ×10⁻⁶ cm/s and the Papp B→A amounted to 1.29 ×10⁻⁶ cm/s. In addition, in series [5], the Papp A→B at 2 h is 0.17 ×10⁻⁶ cm/s and the Papp B→A at 2 h is 11 ×10⁻⁶ cm/s. The half-life at 5 μM in series [1] (rat) was greater than 240 min. In addition, in series [3], the “Chemical Stability, pH 4.5” value is recorded as “Yes” and the “Chemical Stability, pH 7.4” value was “Yes”.
In the case of `C[C@@H]1C[C@H]2[C@@H]3CCC4=C/C(=N\NC(=O)[C@@H](N)Cc5ccccc5)C=C[C@]4(C)[C@@]3(F)[C@@H](O)C[C@]2(C)[C@@]1(O)C(=O)CO` [Compound VIIB], in series [6], the Papp A→B is 0.12 ×10⁻⁶ cm/s and the Papp B→A worked out at 0.87 ×10⁻⁶ cm/s. In series [5], this compound yielded a Papp A→B at 2 h of 0.13 ×10⁻⁶ cm/s and a Papp B→A at 2 h of 9 ×10⁻⁶ cm/s. Moreover, in series [1] (rat), the half-life at 5 μM is greater than 240 min. In addition, in series [3], the “Chemical Stability, pH 4.5” value is on record as “Yes” and the “Chemical Stability, pH 7.4” value was “Yes”.
`C[C@@H]1C[C@H]2[C@@H]3CCC4=C/C(=N\NC(=O)[C@H](N)Cc5ccccc5)C=C[C@]4(C)[C@@]3(F)[C@@H](O)C[C@]2(C)[C@@]1(O)C(=O)CO` [Compound VIIIB]: the half-life at 5 μM in series [1] (rat) was greater than 240 min. Besides, the “GR Binding Data” value in series [4] (@ 0.1 uM) stood at 19%; in series [4] (@ 1 uM) it was 26%; in series [4] (@ 10 uM) it was 72%.
In series [6], `C[C@@H]1C[C@H]2[C@@H]3CCC4=C/C(=N/NC(=S)[C@@H](N)Cc5ccccc5)C=C[C@]4(C)[C@@]3(F)[C@@H](O)C[C@]2(C)[C@@]1(O)C(=O)CO` [Compound X] came in with an apical-to-basolateral permeability (Papp A→B) of less than 0.17 ×10⁻⁶ cm/s and a Papp B→A of 1.82 ×10⁻⁶ cm/s. In series [5], this compound displayed a Papp A→B at 2 h of 0.33 ×10⁻⁶ cm/s and a Papp B→A at 2 h of 4 ×10⁻⁶ cm/s. Also, the half-life at 5 μM in series [1] (rat) was found to be 125 min.
Turning to `C[C@@H]1C[C@H]2[C@@H]3CCC4=CC(=O)C=C[C@]4(C)[C@@]3(F)[C@@H](O)C[C@]2(C)[C@@]1(O)C(=O)CO` [Dexamethasone, reference compound], the “GR Binding Data” value in series [4] (@ 1 nM) came to 16%; in series [4] (@ 10 nM), 50%; in series [4] (@100 nM) it was 93%.
